Measured values as given in publication PMC9025336 (Antibiotics, 2022).
Converted amounts (≈) assume the structure as drawn. Peptide text beside a SMILES is read from it. * marks the point of attachment. Orn(α-tetramethylguanidino) = CN(C)C(=N[C@@H](CCCN)C(=O)*)N(C)C

Columns and labels:
[1] = tested on: E. coli Rosetta; assay: Uptake of cf-labeled PrAMPs; format: cell-based, Escherichia coli
Description: Bacteria were grown in 25% MHBII medium overnight, diluted fourfold with fresh medium, and incubated to obtain an OD600 of ~1. The cultures were adjusted to an OD600 of 1, and cf-labeled peptide was added to achieve a final concentration of 23 µmol/L (~64 µg/mL). After 0 min, 90 min, and 180 min, two aliquots (300 µL) of the culture were transferred to two tubes. One tube was immediately stored on ice in the dark. The second sample was centrifuged (10,000× g, 4 °C, 3 min), and the supernatant was transferred to a fresh tube and stored on ice in the dark. The pellet was washed with ice cold PBS (300 µL) and centrifuged (10,000× g, 4 °C, 3 min), and the supernatant was transferred into a fresh tube. Both the supernatant and the pellet resuspended in 300 µL ice cold PBS were stored on ice in the dark. After 180 min, an aliquot of the unprocessed sample (100 µL) was transferred to a translucent 96-well plate, and the absorbance was measured at 600 nm. Aliquots (100 µL) of the original cell culture, supernatants, wash solutions, and resuspended pellets were transferred into black 96-well plates to measure the fluorescence in a PARADIGM^TM microplate reader in the top read position (λexc = 485 nm, λem = 535 nm). Experiments were performed three times on different days. The relative fluorescence units were normalized to the measured OD600 values of the cell culture.

[2] = tested on: E. coli Rosetta DE3 pLysS; assay: MIC, liquid broth microdilution; format: cell-based, Escherichia coli; conditions: 25% MHBII medium, 7.5 × 10^6 CFU/mL, 37 °C, 20 ± 2 h, turbidity 600 nm, at least twice in triplicate
Description: The minimal inhibitory concentrations (MIC) were determined at least twice in triplicate using a liquid broth microdilution assay in sterile 96-well plates and a total volume of 100 μL per well. Aqueous peptide solutions were serially 2-fold diluted in 25% MHBII or 33% TSB medium in a volume of 50 µL. An overnight culture was diluted in 25% MHBII or 33% TSB medium to 1.5 × 10^7 CFU/mL, and an aliquot of 50 μL was added to each well. The final cell count in each well was 7.5 × 10^6 CFU/mL. The plates were incubated at 37 °C for 20 ± 2 h. The turbidity of each well was measured at a wavelength of 600 nm. The MIC was defined as the lowest peptide concentration where the turbidity was identical to medium only.

[3] = tested on: 70S ribosome extract of E. coli BW25113; assay: Fluorescence polarization, Kd of cf-labeled peptides; format: binding, Escherichia coli; conditions: determined for the cf-labeled peptide; BW25113 ribosome extract; 28 °C, 90 min; 95% confidence interval in brackets; triplicate on at least two days; read-out: Kd, BW
Description: E. coli BW25113 and E. coli Rosetta pLysS were cultivated in LB medium and harvested at an OD600 of ~4 by centrifugation (5000× g, 30 min, 4 °C). The cell pellets were washed by resuspension in ribosome preparation buffer (20 mmol/L Hepes-KOH, 6 mmol/L MgCl2, 30 mmol/L NH4Cl, pH 7.6, 4°C) and subsequent centrifugation (5000× g, 30 min, 4 °C). Cell pellets were suspended in ribosome preparation buffer ([…]) containing freshly added 2-mercapotethanol (4 mmol/L). Lysozyme was added to the resuspended cells and incubated on ice for 30 min. The cell suspension was disrupted six times using a FastPrep-24^TM 5G instrument (MP Biomedicals, Solon, OH, USA) with BigPrep 50 mL setting (40 s, 4.0 m/s), incubated with DNase I (5 mL/L) on ice for one hour and centrifuged (16,000× g, 30 min, 4 °C). The cell debris was removed from the supernatant by centrifugation (32,000× g, 60 min, 4 °C), and the supernatant was centrifuged again (165,000× g, 17 h, 4 °C). The pellet was resuspended in ribosome preparation buffer (0.1 mL per g cell pellet) to obtain the 70S ribosome extract and stored at −80 °C. The ribosome concentration was estimated by recording the absorbance at 260 nm (1 AU for a ribosome concentration of 28 nmol/L). The molecular weight of the 70S E. coli ribosome was assumed to be 2.3 MDa.
Kd was determined using a ribosome extract and cf-labeled peptides in ribosome preparation buffer. Briefly, black 384-well plates (flat bottom, Greiner Bio-One GmbH) were blocked with casein (0.5%, w/v) in phosphate buffer containing 0.05% (v/v) Tween 20 at 4 °C overnight and washed three times with phosphate buffer. A 2-fold dilution series of the ribosome extract (20 μL per well) in ribosome preparation buffer was prepared in a black 384-well plate (23 dilution steps). The cf-labeled peptide was dissolved in ribosome preparation buffer (20 μL, 40 nmol/L), added to each well, and incubated at 28 ± 1 °C. After 90 min, the fluorescence polarization was measured on a PARADIGMTM microplate reader (Beckman Coulter, Salzburg, Austria) in the top read position (λexc = 485 nm, λem = 535 nm) in triplicate on at least two different days. Data were fitted to a nonlinear, dose–response logistical transition equation [y= y0 + a/(1 + (x/x0)b)] using the Levenberg–Marquardt algorithm, with dissociation constants (Kd) represented by the x0 coefficients (GraphPad Prism for Windows v. 5.02, San Diego, CA, USA).

[4] = cf-labeled peptides 23 µmol/L, normalized fluorescence after 180 min

SMILES | uptake in E. coli Rosetta compared with Api137 [1, 4] | MIC, Ros [2] | Kd [3] | normalized uptake of E. coli Rosetta, in words ([1]; cf-labeled peptides 23 µmol/L, 0, 90, 180 min) | uptake in E. coli Rosetta compared with E. coli BW25113 ([1]; cf-labeled peptide 23 µmol/L, normalized fluorescence (OD600) after 180 min) | uptake in E. coli Rosetta compared with Api88 [1, 4]
CC[C@H](C)[C@H](NC(=O)[C@H](Cc1ccc(O)cc1)NC(=O)[C@@H](NC(=O)[C@@H]1CCCN1C(=O)[C@H](CCCNC(=N)N)NC(=O)[C@H](CC(N)=O)NC(=O)[C@H](CC(N)=O)NC(=O)[C@H](CCCN)N=C(N(C)C)N(C)C)C(C)C)C(=O)N1CCC[C@H]1C(=O)N[C@@H](CCCNC(=N)N)C(=O)N1CCC[C@H]1C(=O)N[C@@H](CCCNC(=N)N)C(=O)N1CCC[C@H]1C(=O)N1CCC[C@H]1C(=O)N[C@@H](Cc1c[nH]cn1)C(=O)N1CCC[C@H]1C(=O)N[C@@H](CCCNC(=N)N)C(=O)N[C@@H](CC(C)C)C(N)=O [Api88] ({Orn(α-tetramethylguanidino)}-NNRPVYIPRPRPPHPRL-NH2) | two- to threefold higher | 1 µg/mL (≈ 0.437 µM) | 906 nM | – | – | –
CC[C@H](C)[C@H](NC(=O)[C@H](Cc1ccc(O)cc1)NC(=O)[C@@H](NC(=O)[C@@H]1CCCN1C(=O)[C@H](CCCNC(=N)N)NC(=O)[C@H](CC(N)=O)NC(=O)[C@H](CC(N)=O)NC(=O)[C@H](CCCN)N=C(N(C)C)N(C)C)C(C)C)C(=O)N1CCC[C@H]1C(=O)N[C@@H](CCCNC(=N)N)C(=O)N1CCC[C@H]1C(=O)N[C@@H](CCCNC(=N)N)C(=O)N1CCC[C@H]1C(=O)N1CCC[C@H]1C(=O)N[C@@H](Cc1c[nH]cn1)C(=O)N1CCC[C@H]1C(=O)N[C@@H](CCCNC(=N)N)C(=O)N[C@@H](CC(C)C)C(=O)O [Api137] ({Orn(α-tetramethylguanidino)}-NNRPVYIPRPRPPHPRL-OH) | – | 2 µg/mL (≈ 0.873 µM) | 382 nM | lowest uptake | – | –
CC[C@H](C)[C@H](NC(=O)[C@@H]1CCCN1C(=O)[C@H](CCCNC(=N)N)NC(=O)[C@H](CC(N)=O)NC(=O)[C@H](CC(N)=O)NC(=O)CN)C(=O)N[C@@H](Cc1ccc(O)cc1)C(=O)N[C@H](C(=O)N1CCC[C@H]1C(=O)N[C@@H](CCCNC(=N)N)C(=O)N1CCC[C@H]1C(=O)N[C@@H](CCCNC(=N)N)C(=O)N1CCC[C@H]1C(=O)N1CCC[C@H]1C(=O)N[C@@H](Cc1c[nH]cn1)C(=O)N1CCC[C@H]1C(=O)N[C@@H](CCCNC(=N)N)C(=O)N1CCC[C@H]1C(=O)N[C@H](C(=O)N[C@@H](CCCNC(=N)N)C(=O)N[C@H](C(=O)O)C(C)C)[C@@H](C)CC)[C@@H](C)CC [Api805] (H-GNNRPIYIPRPRPPHPRPIRV-OH; N-terminus assumed) | fivefold higher | – | 557 nM | – | approximately threefold higher | twofold higher
